Measured values published in patent publication US20060275356A1, “Pharmaceutical compositions for treating or preventing coronary artery disease” (priority 2005, published 2006).
Read-outs that look alike come from different tables or passages of the source.

Columns and labels:
plasma apoA-I levels = experiment: Plasma apoA-I levels after two weeks of PI plus absorption enhancer (western immunoblotting); type: in vivo, Sprague Dawley rats; details: 60 mg/kg PI combined with the absorption enhancer (dose per Table 1), rats
Method: Individual absorption enhancers were also incorporated into the 2 g bolus dose (Table 1). […] All animals were maintained on this regime for two weeks, at which time animals were euthanized and blood samples collected by cardiac puncture. Blood samples were collected into EDTA coated tubes, placed on ice, followed by centrifugation at 1500×g for 15 min at 4° C. to separate plasma. Plasma samples were stored at −20° C. until analysis of apoA-I could be performed. Plasma apoA-I levels were determined by western immunoblotting.

plasma HDL-C and apoA-I = experiment: Oral PI in conventional formulations: increase in plasma HDL-C and apoA-I; type: in vivo; details: oral PI about 5.6 g/day
HepG2 cells = details: cited from earlier work
[1] = two pilot studies, children aged 4-19 years; cited from earlier work
[2] = Effect of bile acids on absorption and transport of 3H-PI to the liver; type: in vivo, Sprague Dawley rats; details: 120 mg/kg 3H-PI by gavage with 50 mg/kg bile acid; liver 4 hours post-gavage
Method: Pharmacokinetic studies were performed to determine if specific bile acids increase the absorption and transport of phosphatidylinositol (PI) to the liver. Sprague Dawley rats (300-350 g) were fasted overnight, followed by administration of 120 mg/kg ^3H-PI by gavage. 50 mg/kg of the bile acids deoxycholate or glycocholate were also incorporated into the gavage. Animals were euthanized after 4 hours post-gavage at which time liver samples were harvested. PI was extracted from the liver samples using the acidic Bligh and Dyer extraction method (Bligh, E. G.; Dyer, W. J. Can. J. Biochem. vol. 37: 911-917, 1959 and Honeyman, T. W. et al., Biochem J. vol. 212: 489-498, 1983). Radioactivity present in the organic phase was measured to determine the amount of PI that was transported to the liver.

HDL-C cholesterol = details: 5.5% by weight of rat chow, approximately 4 g/Kg body weight; cited from earlier work

In the case of `CCCCCCCCCCCC(=O)[O-].[Na+]` [sodium laurate], the “increase in plasma apoA-I relative to PI alone” value (plasma apoA-I levels) is reported as 3.7 fold.

In the case of `C[C@H](CCC(=O)O)[C@H]1CC[C@H]2[C@@H]3[C@H](O)C[C@@H]4C[C@H](O)CC[C@]4(C)[C@H]3CC[C@]12C` [chenodeoxycholate], the “increase in plasma apoA-I relative to PI alone” value (plasma apoA-I levels) is reported as 2 fold.

For phosphatidylinositol [PI], the “increase in plasma HDL-C” value (plasma HDL-C and apoA-I) is listed as about 20%, the “increase in plasma apoA-I” value (plasma HDL-C and apoA-I) is listed as about 10% and the “inhibition of cholesterol synthesis” value (HepG2 cells; concentration of 11.7 μM) is listed as 50%.

For `CC(C)c1c(C(=O)Nc2ccccc2)c(-c2ccccc2)c(-c2ccc(F)cc2)n1CC[C@@H](O)C[C@@H](O)CC(=O)O` [atorvastatin, reference compound], the “inhibition of cholesterol synthesis” value (HepG2 cells; concentrations between 0.01 to 10 μM) is given as 45-65%.

For `CCCCCCCCCCCCOS(=O)(=O)[O-].[Na+]` [sodium lauryl sulfate], the “increase in plasma apoA-I relative to PI alone” value (plasma apoA-I levels) was 7.7 fold.

In the case of phosphatidylserine [PS], the “children with improved attention, behavior, learning performance and ameliorated negative mood” value [1] is listed as 15 out of 20.

In the case of `C[C@H](CCC(=O)NCC(=O)O)[C@H]1CC[C@H]2[C@@H]3[C@H](O)C[C@@H]4C[C@H](O)CC[C@]4(C)[C@H]3C[C@H](O)[C@]12C` [glycocholate], the “increase in plasma apoA-I relative to PI alone” value (plasma apoA-I levels) is reported as 6.6 fold.

In the case of deoxycholate, the “increase of transport of PI to the liver” value [2] is reported as 20% and the “increase in plasma apoA-I relative to PI alone” value (plasma apoA-I levels) is reported as 2 fold.

In the case of “Phosphatidic acid [Phosphatidic acid (PA)]”, the “increase of HDL-C cholesterol” value (HDL-C cholesterol) is given as “about 2 fold”.

For Bromelain, the “increase in plasma apoA-I relative to PI alone” value (plasma apoA-I levels) was 5.4 fold.
